From patent US20140303164A1, “THERAPEUTIC COMPOUNDS” (Gilead Sciences, Inc., priority 2013, published 2014) come the findings set out here.

For one data set, the system named is HIV-IIIb. Description: Test A: Antiviral Assay in MT4 Cells. Format: cell-based, HIV-1. Particulars: Human immunodeficiency virus 1, IIIB, MT4, 120 h; for inhibition at 0.2 µM: read-out: % inhibition at 0.2 μM; for inhibition at 2 µM: read-out: % inhibition at 2 μM. The method, then:
Test A: Antiviral Assay in MT4 Cells
MT-4 cells were next mixed with HIV-IIIb at an m.o.i of 0.003 for 1 hour, after which time 35 μL of virus/cell mixture (2000 cells) was immediately added to each well containing 40 μL of diluted compound. The plates were then incubated at 37° C. for 5 days. […] Cell lysis was carried out by incubating at room temperature for 10 min and then chemiluminescence was read.

Data set [1] is described as follows: Test B: Cytotoxicity Assay. The conditions noted are these: human, uninfected MT-4 cells, same protocol as Test A. Format: cell-based. In a few lines:
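Uninfected MT-4 cells (2000 per well) incubated with diluted compound at 37° C. for 5 days, following the antiviral protocol without HIV-IIIb.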

Bounds are passed on as bounds.

The term inhibition denotes the relative decrease from the control value, in per cent. As usually defined, the CC50 is the concentration giving 50% cytotoxicity. Low readings indicate greater toxicity to the cells, high ones lower toxicity to the cells. Turning to `Cn1nccc1-c1ccc(-c2ccc(Cl)c3c(NS(C)(=O)=O)nn(C)c23)c([C@H](Cc2cc(F)cc(F)c2)NC(=O)Cn2nc(C(F)(F)F)c3c2C(F)(F)[C@@H]2C[C@H]32)n1` [Compound 175, N—((S)-1-(3-(4-chloro-1-methyl-3-(methylsulfonamido)-1H-indazol-7-yl)-6-(1-methyl-1H-pyrazol-5-yl)pyridin-2-yl)-2-(3,5-difluorophenyl)ethyl)-2-((3b-S,4aR)-5,5-difluoro-3-(trifluoromethyl)-3b,4,4a,5-tetrahydro-1H-cyclopropa[3,4]cyclopenta[1,2-c]pyrazol-1-yl)acetamide], in the data set with HIV-IIIb, the inhibition at 0.2 µM came to 95% and the inhibition at 2 µM was 95%. This compound gave a CC50 at 5 days in data set [1] greater than 46.1 µM.

On to `Cn1nc(NS(C)(=O)=O)c2c(C(F)F)ccc(-c3ccc(C#CC(C)(C)O)nc3[C@H](Cc3cc(F)cc(F)c3)NC(=O)Cn3nc(C(F)F)c4c3C(F)(F)[C@@H]3C[C@H]43)c21` [Compound 155I, N—((S)-1-(3-(4-(difluoromethyl)-1-methyl-3-(methylsulfonamido)-1H-indazol-7-yl)-6-(3-hydroxy-3-methylbut-1-yn-1-yl)pyridin-2-yl)-2-(3,5-difluorophenyl)ethyl)-2-((3b-S,4aR)-3-(difluoromethyl)-5,5-difluoro-3b,4,4a,5-tetrahydro-1H-cyclopropa[3,4]cyclopenta[1,2-c]pyrazol-1-yl)acetamide], for which, in the data set with HIV-IIIb, the inhibition at 0.2 µM amounted to 99% and the inhibition at 2 µM is 99%. For the same compound, it took 26.8 µM to reach half-maximal cytotoxicity in data set [1] (CC50 at 5 days).

Regarding `Cn1nc(NS(C)(=O)=O)c2c(Cl)ccc(-c3ccc(C#CC(C)(C)O)nc3[C@H](Cc3cccc(F)c3)NC(=O)Cn3nc(C(F)F)c4c3C(F)(F)[C@@H]3C[C@H]43)c21` [Compound 188, N—((S)-1-(3-(4-chloro-1-methyl-3-(methylsulfonamido)-1H-indazol-7-yl)-6-(3-hydroxy-3-methylbut-1-yn-1-yl)pyridin-2-yl)-2-(3-fluorophenyl)ethyl)-2-((3b-S,4aR)-3-(difluoromethyl)-5,5-difluoro-3b,4,4a,5-tetrahydro-1H-cyclopropa[3,4]cyclopenta[1,2-c]pyrazol-1-yl)acetamide], in the data set on HIV-IIIb, the inhibition at 0.2 µM amounted to 92% and the inhibition at 2 µM amounted to 92%. Moreover, the midpoint of cytotoxicity in data set [1], the CC50 at 5 days, lay at 26.3 µM.

With `Cn1nc(NS(C)(=O)=O)c2c(Cl)ccc(-c3ccc(C#CC(C)(O)C(F)F)nc3[C@H](Cc3cc(F)cc(F)c3)NC(=O)Cn3nc(C(F)(F)F)c4c3C(F)(F)[C@@H]3C[C@H]43)c21` (stereo partly drawn) [Compound 157G, N-((1S)-1-(3-(4-chloro-1-methyl-3-(methylsulfonamido)-1H-indazol-7-yl)-6-(4,4-difluoro-3-hydroxy-3-methylbut-1-yn-1-yl)pyridin-2-yl)-2-(3,5-difluorophenyl)ethyl)-2-((3b-S,4aR)-5,5-difluoro-3-(trifluoromethyl)-3b,4,4a,5-tetrahydro-1H-cyclopropa[3,4]cyclopenta[1,2-c]pyrazol-1-yl)acetamide], in the data set on HIV-IIIb, the inhibition at 0.2 µM was 87% and the inhibition at 2 µM was found to be 87%. This compound had a CC50 at 5 days in data set [1] of 10.9 µM.

As for `CC(C)(O)C#Cc1ccc(-c2ccc(Cl)n3c(N)nnc23)c([C@H](Cc2cc(F)cc(F)c2)NC(=O)Cn2nc(C(F)(F)F)c3c2C(F)(F)[C@@H]2C[C@H]32)n1` [Compound 111, N—((S)-1-(3-(3-amino-5-chloro-[1,2,4]triazolo[4,3-a]pyridin-8-yl)-6-(3-hydroxy-3-methylbut-1-yn-1-yl)pyridin-2-yl)-2-(3,5-difluorophenyl)ethyl)-2-((3b-S,4aR)-5,5-difluoro-3-(trifluoromethyl)-3b,4,4a,5-tetrahydro-1H-cyclopropa[3,4]cyclopenta[1,2-c]pyrazol-1-yl)acetamide], in the data set with HIV-IIIb, the inhibition at 0.2 µM worked out at 89% and the inhibition at 2 µM was 90%. Besides, the CC50 at 5 days in data set [1] was 9.59 µM.

Consider `CC(C)C(C)(O)C#Cc1ccc(-c2cccc3c(NS(C)(=O)=O)nn(C)c23)c([C@H](Cc2cc(F)cc(F)c2)NC(=O)Cn2nc(C(F)(F)F)c3c2C(F)(F)[C@@H]2C[C@H]32)n1` (stereo partly drawn) [Compound 62, 2-((3bS,4aR)-5,5-difluoro-3-(trifluoromethyl)-3b,4,4a,5-tetrahydro-1H-cyclopropa[3,4]cyclopenta[1,2-c]pyrazol-1-yl)-N-((1S)-2-(3,5-difluorophenyl)-1-(6-(3-hydroxy-3,4-dimethylpent-1-yn-1-yl)-3-(1-methyl-3-(methylsulfonamido)-1H-indazol-7-yl)pyridin-2-yl)ethyl)acetamide], for which, in the data set with HIV-IIIb, the inhibition at 0.2 µM worked out at 100% and the inhibition at 2 µM is 100%. For the same compound, in data set [1], the CC50 at 5 days is 5.7 µM.

On to `CC(C)(O)C#Cc1ccc(-c2ccc(Cl)c3c(NS(C)(=O)=O)n[nH]c23)c([C@H](Cc2cc(F)cc(F)c2)NC(=O)Cn2nc(C(F)F)c3c2C(F)(F)[C@@H]2C[C@H]32)n1` [Compound 108C, N—((S)-1-(3-(4-chloro-3-(methylsulfonamido)-1H-indazol-7-yl)-6-(3-hydroxy-3-methylbut-1-yn-1-yl)pyridin-2-yl)-2-(3,5-difluorophenyl)ethyl)-2-((3b-S,4aR)-3-(difluoromethyl)-5,5-difluoro-3b,4,4a,5-tetrahydro-1H-cyclopropa[3,4]cyclopenta[1,2-c]pyrazol-1-yl)acetamide], for which, in the data set on HIV-IIIb, the inhibition at 0.2 µM came out at 94% and the inhibition at 2 µM was determined as 94%. Moreover, in data set [1], the CC50 at 5 days was greater than 53.1 µM.

Consider `CNc1nn(C)c2c(-c3ccc(C#CC(C)(C)O)nc3[C@H](Cc3cc(F)cc(F)c3)NC(=O)Cn3nc(C(F)F)c4c3C(F)(F)[C@@H]3C[C@H]43)ccc(Cl)c12` [Compound 81, N—((S)-1-(3-(4-chloro-1-methyl-3-(methylamino)-1H-indazol-7-yl)-6-(3-hydroxy-3-methylbut-1-yn-1-yl)pyridin-2-yl)-2-(3,5-difluorophenyl)ethyl)-2-((3bS,4aR)-3-(difluoromethyl)-5,5-difluoro-3b,4,4a,5-tetrahydro-1H-cyclopropa[3,4]cyclopenta[1,2-c]pyrazol-1-yl)acetamide], for which, in the data set with HIV-IIIb, the inhibition at 0.2 µM came to 100% and the inhibition at 2 µM was determined as 100%. In addition, in data set [1], the midpoint of cytotoxicity, the CC50 at 5 days, lay at 12.5 µM.

In the case of `CCC(O)(C#Cc1ccc(-c2cccc3c(NS(C)(=O)=O)nn(C)c23)c([C@H](Cc2cc(F)cc(F)c2)NC(=O)Cn2nc(C(F)(F)F)c3c2C(F)(F)[C@@H]2C[C@H]32)n1)CC` [Compound 66, 2-((3bS,4aR)-5,5-difluoro-3-(trifluoromethyl)-3b,4,4a,5-tetrahydro-1H-cyclopropa[3,4]cyclopenta[1,2-c]pyrazol-1-yl)-N—((S)-2-(3,5-difluorophenyl)-1-(6-(3-ethyl-3-hydroxypent-1-yn-1-yl)-3-(1-methyl-3-(methylsulfonamido)-1H-indazol-7-yl)pyridin-2-yl)ethyl)acetamide], in the data set with HIV-IIIb, the inhibition at 0.2 µM came to 97% and the inhibition at 2 µM was determined as 97%. In data set [1], the CC50 at 5 days was determined as 6.96 µM.

For `Cn1nc(NS(C)(=O)=O)c2cccc(-c3ccc(C#CC(C)(C)O)nc3[C@H](Cc3cc(F)cc(F)c3)NC(=O)Cn3nc(C(F)(F)F)c4c3C(F)(F)[C@@H]3C[C@H]43)c21` [Compound 33F, 2-((3bS,4aR)-5,5-difluoro-3-(trifluoromethyl)-3b,4,4a,5-tetrahydro-1H-cyclopropa[3,4]cyclopenta[1,2-c]pyrazol-1-yl)-N—((S)-2-(3,5-difluorophenyl)-1-(6-(3-hydroxy-3-methylbut-1-yn-1-yl)-3-(1-methyl-3-(methylsulfonamido)-1H-indazol-7-yl)pyridin-2-yl)ethyl)acetamide], in the data set with HIV-IIIb, the inhibition at 0.2 µM worked out at 93% and the inhibition at 2 µM is 93%. Half-maximal cytotoxicity in data set [1] (CC50 at 5 days) was put at 12.9 µM.

On to `COc1ccc(-c2ccc(C#CC(C)(C)O)nc2[C@H](Cc2cc(F)cc(F)c2)NC(=O)Cn2nc(C(F)F)c3c2C(F)(F)[C@@H]2C[C@H]32)c2c1c(N)nn2C` [Compound 114G, N—((S)-1-(3-(3-amino-4-methoxy-1-methyl-1H-indazol-7-yl)-6-(3-hydroxy-3-methylbut-1-yn-1-yl)pyridin-2-yl)-2-(3,5-difluorophenyl)ethyl)-2-((3b-S,4aR)-3-(difluoromethyl)-5,5-difluoro-3b,4,4a,5-tetrahydro-1H-cyclopropa[3,4]cyclopenta[1,2-c]pyrazol-1-yl)acetamide], for which, in the data set with HIV-IIIb, the inhibition at 0.2 µM was found to be 100% and the inhibition at 2 µM came to 100%. Besides, in data set [1], the CC50 at 5 days is 14.8 µM.

For the compound `Cc1c(-c2ccc(C#CC(C)(C)O)nc2[C@H](Cc2cc(F)cc(F)c2)NC(=O)Cn2nc(C(F)(F)F)c3c2C(F)(F)[C@@H]2C[C@H]32)ccc2n[nH]c(=O)n12` [Compound 27G, 2-((3bS,4aR)-5,5-difluoro-3-(trifluoromethyl)-3b,4,4a,5-tetrahydro-1H-cyclopropa[3,4]cyclopenta[1,2-c]pyrazol-1-yl)-N—((S)-2-(3,5-difluorophenyl)-1-(6-(3-hydroxy-3-methylbut-1-yn-1-yl)-3-(5-methyl-3-oxo-2,3-dihydro-[1,2,4]triazolo[4,3-a]pyridin-6-yl)pyridin-2-yl)ethyl)acetamide], in the data set on HIV-IIIb, the inhibition at 0.2 µM came out at 89% and the inhibition at 2 µM came out at 89%. This compound also displayed a CC50 at 5 days in data set [1] of 10.4 µM.

`COCCC(=O)Nc1nn(C)c2c(-c3ccc(C#CC(C)(C)O)nc3[C@H](Cc3cc(F)cc(F)c3)NC(=O)Cn3nc(C(F)F)c4c3C(F)(F)[C@@H]3C[C@H]43)ccc(Cl)c12` [Compound 85, N-(4-chloro-7-(2-((S)-1-(2-((3b-S,4aR)-3-(difluoromethyl)-5,5-difluoro-3b,4,4a,5-tetrahydro-1H-cyclopropa[3,4]cyclopenta[1,2-c]pyrazol-1-yl)acetamido)-2-(3,5-difluorophenyl)ethyl)-6-(3-hydroxy-3-methylbut-1-yn-1-yl)pyridin-3-yl)-1-methyl-1H-indazol-3-yl)-3-methoxypropanamide]: in the data set with HIV-IIIb, the inhibition at 0.2 µM was 96% and the inhibition at 2 µM amounted to 96%. This compound returned a CC50 at 5 days in data set [1] of 7.85 µM.
